Data from PubChem BioAssay AID1845228.

Details: pampa; 60.0 min; 50.0 µM

Question: For `O=C1c2c(O)ccc(O)c2C(=O)c2c(NCCNCCO)ccc(NCCNCCO)c21`, which Papp is on record?
Answer: 19 ×10⁻⁶ cm/s

Question: For `CCCN[C@H]1CCc2nc(N)sc2C1`, which Papp is on record?
Answer: 4 ×10⁻⁶ cm/s

Question: Which Papp does the source give for `C/C(=C\c1csc(C)n1)[C@@H]1C[C@@H]2O[C@]2(C)CCC[C@H](C)[C@H](O)[C@@H](C)C(=O)C(C)(C)[C@@H](O)CC(=O)N1` here?
Answer: 1.7 ×10⁻⁶ cm/s

Question: With `N#Cc1ccc(C(=O)Nc2ccc(Cl)c(-c3nc4ncccc4o3)c2)c(F)c1` as the molecule, how does the Papp read?
Answer: 160 ×10⁻⁶ cm/s

Question: Which Papp does the source give for `COc1ccccc1NC(=O)C1=C(C)Nc2c(C(=O)Nc3cccc(C)c3)cnn2C1c1ccccc1Cl` (stereo unspecified) here?
Answer: 160 ×10⁻⁶ cm/s

Question: For `COc1c(C)cnc(Cn2cnc3c(Cl)nc(N)nc32)c1C`, which Papp is on record?
Answer: 3.17 ×10⁻⁶ cm/s

Question: With `CC(C)C(=O)OCc1cccc(OC(=O)[C@@H]2N3C(=O)[C@@H](NC(=O)Cc4ccccc4)[C@H]3SC2(C)C)c1` as the molecule, how does the Papp read?
Answer: 84 ×10⁻⁶ cm/s

Question: With `O=C(c1ccc(-c2ncc3cnc(-c4cccc(F)c4)cn23)cc1)N1CC(O)C1` as the molecule, how does the Papp read?
Answer: 27 ×10⁻⁶ cm/s

Question: Which Papp does the source give for `Cc1[nH]c(/C=C2\C(=O)Nc3ccc(F)cc32)c(C)c1C(=O)NC[C@H](O)CN1CCOCC1` here?
Answer: 42 ×10⁻⁶ cm/s

Question: For `COc1cc(OC)c(OC)cc1CN1CCc2nc(N3CCN(c4ccccc4F)CC3)ncc2C1`, which Papp is on record?
Answer: > 300 ×10⁻⁶ cm/s

Question: Which Papp does the source give for `CC1(C)SCCN(S(=O)(=O)c2ccc(Oc3ccncc3)cc2)[C@H]1C(=O)NO` here?
Answer: 9 ×10⁻⁶ cm/s

Question: For `CC(C)(C)C(=O)OCOC(=O)C1N2C(=O)CC2S(=O)(=O)C1(C)C` (stereo unspecified), which Papp is on record?
Answer: 37 ×10⁻⁶ cm/s

Question: Which Papp does the source give for `Cc1ccc(-c2c(C(=O)CCl)n(CCCO)c3ncnc(N)c23)cc1` here?
Answer: 76 ×10⁻⁶ cm/s

Question: For `O=C1NCN(c2ccccc2)C12CCN(CCCC(c1ccc(F)cc1)c1ccc(F)cc1)CC2`, which Papp is on record?
Answer: 42 ×10⁻⁶ cm/s

Question: With `CON=C(C(=O)N[C@@H]1C(=O)N2C(C(=O)O)=C(Cn3ccc(=N)n3CCO)CS[C@H]12)c1csc(N)n1` as the molecule, how does the Papp read?
Answer: < 1 ×10⁻⁶ cm/s

Question: With `O=C(Nc1cccnc1)c1cccs1` as the molecule, how does the Papp read?
Answer: 10 ×10⁻⁶ cm/s

Question: Which Papp does the source give for `CC[C@@H]1C[C@]1(NC(=O)[C@@H]1C[C@@H]2CN1C(=O)[C@H](C(C)(C)C)NC(=O)OCC(C)(C)CCCCc1cccc3c1CN(C3)C(=O)O2)C(=O)NS(=O)(=O)C1CC1` here?
Answer: 10 ×10⁻⁶ cm/s

Question: With `N=c1c2c(-c3ccccc3)cn(Cc3ccccc3)c2ncn1CCN` as the molecule, how does the Papp read?
Answer: 131 ×10⁻⁶ cm/s

Question: Which Papp does the source give for `CS/C=C/C(=O)O[C@@H]1CCC2=CC(=O)C(=C(C)C)C[C@]2(C)[C@H]1C` here?
Answer: 77 ×10⁻⁶ cm/s

Question: For `CCC[C@@H](NC(=O)N1C(=O)C(CC)(CC)[C@@H]1Oc1ccc(C(=O)N2CCN(C)CC2)cc1)c1ccc2c(c1)OCO2`, which Papp is on record?
Answer: > 300 ×10⁻⁶ cm/s

Question: With `N=c1c2c(-c3ccccc3)cn(Cc3ccccc3)c2ncn1CCO` as the molecule, how does the Papp read?
Answer: 113 ×10⁻⁶ cm/s

Question: With `CC(=O)NC[C@H]1CN(c2ccc(N3CCOCC3)c(F)c2)C(=O)O1` as the molecule, how does the Papp read?
Answer: 5 ×10⁻⁶ cm/s

Question: With `CO/N=C(/C(=O)N[C@@H]1C(=O)N2C(C(=O)O)=C(COC(N)=O)CS[C@H]12)c1ccco1` as the molecule, how does the Papp read?
Answer: 2 ×10⁻⁶ cm/s

Question: For `Cn1nnnc1Sc1ncnc2scc(-c3cccc4ccccc34)c12`, which Papp is on record?
Answer: 265 ×10⁻⁶ cm/s

Question: With `Cc1ccc(CN2C(=O)C(=O)c3cc(Br)cc(C)c32)cc1` as the molecule, how does the Papp read?
Answer: 98.5 ×10⁻⁶ cm/s

Question: For `CCN(CC)CCNc1ccc2ncn3c4ccc(O)cc4c(=O)c1c23`, which Papp is on record?
Answer: 17 ×10⁻⁶ cm/s

Question: For `COCC1=C(C(=O)O)N2C(=O)[C@@H](NC(=O)/C(=N\OC)c3csc(N)n3)[C@H]2SC1`, which Papp is on record?
Answer: < 1 ×10⁻⁶ cm/s

Question: For `COCCNC(=O)c1ccc(-c2ncc3cnc(-c4cccc(F)c4)cn23)cc1`, which Papp is on record?
Answer: 95 ×10⁻⁶ cm/s

Question: For `NNC(=O)c1ccncc1`, which Papp is on record?
Answer: 3 ×10⁻⁶ cm/s

Question: With `CN1CCN(C(=O)Cc2c[nH]c3ncc(-c4ccccc4Oc4ccccc4)cc23)CC1` as the molecule, how does the Papp read?
Answer: 299 ×10⁻⁶ cm/s

Question: With `Nc1nc2c(s1)CCN(Cc1ccc(Cl)cc1)CC2` as the molecule, how does the Papp read?
Answer: 127 ×10⁻⁶ cm/s

Question: For `CC(C)N(CCCNC(=O)Nc1ccc(C(C)(C)C)cc1)C[C@H]1O[C@@H](n2ccc3c(N)ncnc32)[C@H](O)[C@@H]1O`, which Papp is on record?
Answer: < 1 ×10⁻⁶ cm/s

Question: For `COC(=O)C[C@@H](C(=O)OC)n1cnc2c(c(-c3ccccc3)cn2Cc2ccc(Br)cc2)c1=N`, which Papp is on record?
Answer: < 1 ×10⁻⁶ cm/s

Question: With `C=CC1=C(C(=O)O)N2C(=O)[C@@H](NC(=O)/C(=N\OCC(=O)O)c3csc(N)n3)[C@H]2SC1` as the molecule, how does the Papp read?
Answer: 2 ×10⁻⁶ cm/s

Question: Which Papp does the source give for `N=c1c2c(-c3ccccc3)c(-c3ccccc3)n(CCc3ccccc3)c2ncn1CC1CCCO1` (stereo unspecified) here?
Answer: 269 ×10⁻⁶ cm/s

Question: For `N=c1c2c(-c3ccccc3)c(-c3ccccc3)n(Cc3ccccc3)c2ncn1CCN`, which Papp is on record?
Answer: 78 ×10⁻⁶ cm/s

Question: With `O=C1/C(=C\c2ccccc2)C[C@@]2(O)[C@H]3Cc4ccc(O)c5c4[C@@]2(CCN3CC2CC2)[C@@H]1O5` as the molecule, how does the Papp read?
Answer: 158 ×10⁻⁶ cm/s

Question: For `CSc1nc(N)cc(Oc2ccc(-c3nc(Nc4cccc(C(F)(F)F)c4)n[nH]3)cc2)n1`, which Papp is on record?
Answer: 53.8 ×10⁻⁶ cm/s

Question: For `C=Cc1c(C)c2cc3nc(c(CC(=O)N[C@@H](CC(=O)O)C(=O)O)c4nc(cc5[nH]c(cc1[nH]2)c(C)c5CC)C(C)=C4C(=O)O)[C@@H](CCC(=O)O)[C@@H]3C`, which Papp is on record?
Answer: < 1 ×10⁻⁶ cm/s

Question: For `Cn1nnnc1Sc1ncnc2scc(-c3ccc(C(=O)OC(C)(C)C)cc3)c12`, which Papp is on record?
Answer: 72 ×10⁻⁶ cm/s

Question: Which Papp does the source give for `COCCN(C)Cc1ccc2nc3sc(C(=O)N(C)C4CCCCC4)cn3c2c1` here?
Answer: 79 ×10⁻⁶ cm/s

Question: With `CC(=O)OCC1=C(C(=O)O)N2C(=O)C(NC(=O)CCCC(N)C(=O)O)C2SC1` (stereo unspecified) as the molecule, how does the Papp read?
Answer: 2 ×10⁻⁶ cm/s

Question: Which Papp does the source give for `CC(C)C[C@@H](C(=O)N[C@@H](Cc1ccc(OCc2ccccc2)cc1)C(=O)NC(C)(C)C)N(C)Cc1ccc(C(C)(C)C)cc1` here?
Answer: > 300 ×10⁻⁶ cm/s

Question: Which Papp does the source give for `N=c1c2c(-c3ccccc3)cn(Cc3ccccc3)c2ncn1CCNCCO` here?
Answer: 3 ×10⁻⁶ cm/s

Question: For `CCO/N=C(\C(=O)N[C@@H]1C(=O)N2C(C(=O)O)=C(Sc3nc(-c4cc[n+](C)cc4)cs3)CS[C@H]12)c1nsc(NP(=O)(O)O)n1`, which Papp is on record?
Answer: 2 ×10⁻⁶ cm/s

Question: With `CCCCCCCCCC(=O)O[C@H]1CC[C@H]2[C@@H]3CCC4=CC(=O)CC[C@@H]4[C@H]3CC[C@]12C` as the molecule, how does the Papp read?
Answer: < 1 ×10⁻⁶ cm/s
